Results taken from paper PMC9495854, “Novel Phenothiazine/Donepezil-like Hybrids Endowed with Antioxidant Activity for a Multi-Target Approach to the Therapy of Alzheimer’s Disease” (Antioxidants, 2022).

Columns and labels:
FAAH Human recombinant = molecular target: T1, FAAH Human recombinant (Homo sapiens, UniProt O00519); test: FAAH inhibition, fluorometric assay; format: biochemical; details: mean ± SEM; read-out: hFAAH (IC50)
T1 construct: purchased Cayman Chemical
T1 sequence (O00519 1-579): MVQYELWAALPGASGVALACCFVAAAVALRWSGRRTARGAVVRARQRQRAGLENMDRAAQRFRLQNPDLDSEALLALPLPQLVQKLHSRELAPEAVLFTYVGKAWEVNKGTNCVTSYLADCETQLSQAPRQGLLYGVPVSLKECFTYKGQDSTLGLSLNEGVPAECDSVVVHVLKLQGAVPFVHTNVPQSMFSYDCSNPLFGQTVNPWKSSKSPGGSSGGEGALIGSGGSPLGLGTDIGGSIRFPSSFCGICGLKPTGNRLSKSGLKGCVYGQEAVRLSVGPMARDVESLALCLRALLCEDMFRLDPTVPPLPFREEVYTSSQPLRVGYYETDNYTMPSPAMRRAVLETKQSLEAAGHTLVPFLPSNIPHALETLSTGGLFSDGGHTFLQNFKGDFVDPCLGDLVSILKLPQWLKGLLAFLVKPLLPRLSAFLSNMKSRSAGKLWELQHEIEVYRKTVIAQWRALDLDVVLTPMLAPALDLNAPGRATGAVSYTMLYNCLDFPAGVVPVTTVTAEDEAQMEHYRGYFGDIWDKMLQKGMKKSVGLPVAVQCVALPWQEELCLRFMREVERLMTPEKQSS
Experimental: The fatty acid amide hydrolase inhibition was measured for the final compounds using 96-well black flat-bottom microtiter NBS plates (COSTAR flat black). The total volume was 150 µL: the single hybrid was pre-incubated at different concentrations with the enzyme (FAAH Human recombinant, Cayman Chemical, Ann Arbor, MI, USA) in the specific fluorometric assay buffer (tris-HCl 125 mM, Na2EDTA · 2H2O 1 mM, pH = 9.0) for ten minutes at RT, using an orbital shaker. A 50 μL solution of the substrate (7-amino-4-methyl-2H-1-benzopyran-2-one-5Z,8Z,11Z,14Z-eicosatetraen-amide, at a final concentration of 5 µM) was then added. The plates were then incubated for 1 h at 37 °C in a Tecan Infinite M1000 Pro (Tecan, Cernusco S.N., Italy), reading fluorescence values from each well every 30s (λex = 340 nm, λem = 450 nm). The inhibitor activity was expressed as relative fluorescence units (RFU), using the values obtained from control wells lacking the inhibitor and blank wells lacking both inhibitor and enzyme to calculate percent inhibition values for each well. IC50 values are expressed as mean ± SEM of at least two independent measurements performed in triplicate.

SH-SY5Y cells = test: DCFH-DA cell-based antioxidant assay (H2O2-induced oxidation), SH-SY5Y; details: Homo sapiens, SHSY-5Y, 1 h compound, 100 μM H2O2, read-out: DCFDH-DA IC50 ± SEM SHSY-5Y
Experimental: HepG2 cells were cultured in Eagle’s Minimum Essential Medium (MEM, Euroclone S.p.A., Pero, MI, Italy), supplemented with 10% Fetal Bovine Serum (FBS, Euroclone S.p.A., Pero, MI, Italy), 1% L-glutamine (Euroclone S.p.A., Pero, MI, Italy), 100 U/mL penicillin/streptomycin (Euroclone S.p.A., Pero, MI, Italy), 1% Non-Essential Amino Acids (NEAA, Euroclone S.p.A., Pero, MI, Italy). SH-SY5Y cells were grown in a 1:1 mixture of Dulbecco’s modified Eagle’s medium (DMEM)—high glucose (Euroclone S.p.A., Pero, MI, Italy) and Ham’s F12 Medium (Euroclone S.p.A., Pero, MI, Italy) supplemented with 10% FBS, 1% L-glutamine and 100 U/mL penicillin/streptomycin. For cell assays, cells were trypsinized using Trypsin-EDTA 1X in PBS (Euroclone S.p.A., Pero, MI, Italy).
According to a slightly modified procedure already reported in the literature, the generation of ROS was determined using an oxidation-sensitive fluorescent probe, 2′,7′-dichlorodihydrofluorescein diacetate (DCFH-DA, D6665; Sigma-Aldrich, St. Louis, MO, USA). Briefly, viable cells were seeded in a black 96-well cell culture plate (Costar, Sigma-Aldrich, St. Louis, MO, USA) and after 24 h were incubated with different concentrations (0.1–100 µM) of each compound for 1 h at 37 °C in 5% CO2. […] After washing using PBS, 100 μM H2O2 in medium without serum was added to each well and the cells were incubated for an additional 30 min. The formation of fluorescent dichlorofluorescein (DCF) due to oxidation of DCFH in the presence of ROS, was read at 530 nm using a microplate reader Tecan Infinite M1000 Pro (Tecan, Cernusco S.N., Italy) and DMSO medium was used for control cells. The results are expressed as mean ± SEM of at least three independent measurements in triplicate.

[1] = DPPH radical scavenging assay; details: DPPH 100 µM in methanol, 30 min
Experimental: A previously reported method (Blois) with some modifications (Mishra, Ojha, & Chaudhury, 2012) was used to carry out the DPPH assay in 96-well microtiter plates. Each tested compound was dissolved in methanol, after which a freshly prepared solution of DPPH in methanol (100 µM final concentration) was added. Following vigorous stirring, each mixture was left in the dark for 30 min at room temperature, after which absorbance values for each well were read at 520 nm using a spectrophotometric plate reader (VICTOR^3 V multilabel plate reader, PerkinElmer). Antioxidant activity was determined as RSA% (radical scavenging activity). The value was calculated using following equation: RSA% = 100 × [(Ao − Ai)/Ao], where Ao and Ai represent DPPH absorbance in absence or in presence of antioxidant, respectively. Antiradical curves for calculating the EC50 values were obtained by testing each compound at several concentrations. Values of all parameters are expressed as mean ± SEM of at least three independent measurements in triplicate.

| SMILES | IC50 (FAAH Human recombinant) | IC50 (SH-SY5Y cells) | EC50 (μmol/μmol of DPPH ± SEM) [1] |
| --- | --- | --- | --- |
| O=C(NCC1CCN(Cc2ccccc2)CC1)c1ccc2c(c1)Nc1ccccc1S2 [Compound 11a, N-((1-Benzylpiperidin-4-yl)methyl)-10H-phenothiazine-2-carboxamide] | 22.6 ± 1.6 µM | 14.1 ± 0.6 µM | 0.082 ± 0.007 μmol/μmol of DPPH |
| O=C(NCC1CCN(Cc2ccccc2Cl)CC1)c1ccc2c(c1)Nc1ccccc1S2 [Compound 11b, N-((1-(2-Chlorobenzyl)piperidin-4-yl)methyl)-10H-phenothiazine-2-carboxamide] | 3.8 ± 0.9 µM | 1.32 ± 0.2 µM | 0.139 ± 0.014 μmol/μmol of DPPH |
| Cc1ccccc1CN1CCC(CNC(=O)c2ccc3c(c2)Nc2ccccc2S3)CC1 [Compound 11c, N-((1-(2-Methylbenzyl)piperidin-4-yl)methyl)-10H-phenothiazine-2-carboxamide] | 3.08 ± 0.44 µM | 2.11 ± 0.4 µM | 0.117 ± 0.013 μmol/μmol of DPPH |
| O=C(NCC1CCN(Cc2ccccc2F)CC1)c1ccc2c(c1)Nc1ccccc1S2 [Compound 11d, N-((1-(2-Fluorobenzyl)piperidin-4-yl)methyl)-10H-phenothiazine-2-carboxamide] | 5.06 ± 0.4 µM | 1.43 ± 0.5 µM | 0.126 ± 0.014 μmol/μmol of DPPH |
| COc1cccc(CN2CCC(CNC(=O)c3ccc4c(c3)Nc3ccccc3S4)CC2)c1 [Compound 11e, N-((1-(3-Methoxybenzyl)piperidin-4-yl)methyl)-10H-phenothiazine-2-carboxamide] | 13 ± 3.4 µM | 1.12 ± 0.9 µM | 0.104 ± 0.011 μmol/μmol of DPPH |
| O=C(NCCN1CCN(Cc2ccccc2)CC1)c1ccc2c(c1)Nc1ccccc1S2 [Compound 12a, N-(2-(4-Benzylpiperazin-1-yl)ethyl)-10H-phenothiazine-2-carboxamide] | 41.4 ± 0.9 µM | 2.01 ± 0.61 µM | 0.182 ± 0.016 μmol/μmol of DPPH |
| O=C(NCCN1CCN(Cc2ccccc2Cl)CC1)c1ccc2c(c1)Nc1ccccc1S2 [Compound 12b, N-(2-(4-(2-Chlorobenzyl)piperazin-1-yl)ethyl)-10H-phenothiazine-2-carboxamide] | 6.31 ± 1.28 µM | 9.1 ± 1.42 µM | 0.122 ± 0.011 μmol/μmol of DPPH |
| Cc1ccccc1CN1CCN(CCNC(=O)c2ccc3c(c2)Nc2ccccc2S3)CC1 [Compound 12c, N-(2-(4-(2-Methylbenzyl)piperazin-1-yl)ethyl)-10H-phenothiazine-2-carboxamide] | 7.33 ± 0.86 µM | 11.3 ± 0.21 µM | 0.145 ± 0.010 μmol/μmol of DPPH |
| O=C(NCCN1CCN(Cc2ccccc2F)CC1)c1ccc2c(c1)Nc1ccccc1S2 [Compound 12d, N-(2-(4-(2-Fluorobenzyl)piperazin-1-yl)ethyl)-10H-phenothiazine-2-carboxamide] | 9.65 ± 2.45 µM | 11.7 ± 1.11 µM | 0.231 ± 0.026 μmol/μmol of DPPH |
| CC(=O)N1c2ccccc2Sc2ccc(C(=O)NCCN3CCN(Cc4ccccc4Cl)CC3)cc21 [Compound 13, 10-Acetyl-N-(2-(4-(2-chlorobenzyl)piperazin-1-yl)ethyl)-10H-phenothiazine-2-carboxamide] | 16.9 ± 4.4 µM | 1.22 ± 0.2 µM |  |
